Results on one compound are retold here after patent US10010560B2, “Small molecule HSP70 inhibitors” (THE TRUSTEES OF THE UNIVERSITY OF PENNSYLVANIA, priority 2014, dated 2018).

One experiment concerns LC3. The experiment in a line: Western blot for autophagy marker LC3. It is filed as cell-based, human. To be noted: A875 melanoma cell line. From the text:
(§1) FIGS. 4A-4L illustrate that PET-16 impairs proteostasis. […] There is a general absence of obvious nuclei in PET-16 treated tumor cells. […] FIGS. 4D and 4E are gels of whole-cell extracts (WCE) prepared from human melanoma A875 (D) or 451 Lu (E) cells treated with DMSO, PES or PET-16 that were immunoprecipitated using an anti-HSP70 antibody. The excised band of about 70 kDa shown in the Coomassie gel is HSP70, as confirmed by liquid chromatography—tandem mass spectrometry analysis. FIGS. 4F-4I are western blots of cell lines were treated with DMSO, PES or PET-16 for 24 h and immunoblotted for the indicated proteins. FIG. 4J are western blots of indicated melanomas pretreated with DMSO, PES or PET-16, followed by treatment with IL-6. Cell extracts were immunoblotted for the proteins indicated. Inhibition of IL-6 induced STAT3 and STAT1 phosphorylation by PET-16. FIG. 4K is a western blot analysis indicating altered processing of cathepsin L from the larger precursor form to the smaller mature form in the indicated cells following PET-16 treatment for 24 h. FIG. 4L is a western blot of the human melanoma 451 Lu cells treated with DMSO, PES or PET-16 for 24 h. Cells were harvested in 1% NP40-containing lysis buffer, fractionated into detergent-soluble and detergent-insoluble preparations, and assayed by western blot for ubiquitin. […]

The subject of experiment [1] is human melanoma cell lines. The experiment in a line: MTT assays of human melanoma cell lines. To be noted: several melanoma cell lines, 72 h. Format: cell-based. The protocol:
(§2) FIGS. 2A-2D illustrate the cytotoxicity of PET-16 to human tumor cells and its inhibition on E. coli growth. FIG. 2A is a line graph with data obtained from MTT assays of human melanoma cell lines treated with the indicated concentrations of PES or PET-16 for 72 h. The corresponding cell survival is normalized to vehicle (DMSO) treatment. Average and standard deviation (s.d.) from three independent experiments are shown. FIG. 2B are bar graphs of human melanoma (A875) cells and nontransformed human (IMR90) fibroblasts that were treated with DMSO, 10 μM PES or 10 μM PET-16 for 24 h. […] FIG. 2C is a line graph illustrating the growth of E. coli DH5α treated with different concentrations of PES or PET-16 for 6 h at 43° C. Error bars represent the s.d. of four independent experiments. FIG. 2D is a bar graph illustrating the growth of E. coli DH5α treated with DMSO, 30 μM PET-16 or 30 μM TPP for 6 h at 43° C. Error bars represent the s.d. of four independent experiments.
MTT assays of human melanoma cell lines, as indicated, treated with the indicated concentration of PET-16 for 72 hours. The corresponding cell survival is normalized to vehicle (DMSO) treatment. Average and standard deviation (s.d.) from three independent experiments are shown.

The next experiment concerns cathepsin L. The experiment is described as follows: Western blot of cathepsin L processing. Format: cell-based. To be noted: 24 h treatment.
Text: as §1

In a further experiment the test system is E. coli DH5α. The experiment in a line: Growth of E. coli DH5α at 43° C. Format: cell-based. The protocol:
as §2
FIGS. 9A-9H illustrate that PET-16 binds directly to ADP-bound HSP70 and is cytotoxic to human tumor cells. FIGS. 9A-9C are ITC assays of the interaction of PET-3C with purified human HSP70-ADP (A), human HSP70-ATP (B) and DnaK-ADP (C) proteins. The data are representative of three independent experiments. FIG. 9D is a line graph of an MTT assay of the human melanoma cell line 1205 Lu treated with the indicated concentrations of PET-16 (---) or PET-3C (-) for 72 h. The corresponding cell survival is normalized to the DMSO-treatment. Average and standard deviation (s.d.) from three independent experiments are shown. FIG. 9E is a line graph illustrating the growth of E. coli DH5α strain treated with different concentrations of PET-16 (black) or PET-3C (gray) for 6 h at 43° C. Error bars represent the s.d. of four independent experiments. FIG. 9F is a bar graph illustrating the growth of E. coli DH5α treated with DMSO, 30 μM PET-16, 30 μM PET-3C or 30 μM TPP for 6 h at 43° C. Error bars represent the s.d. of four independent experiments. […]

Experiment [2] has as its system mouse melanoma cell line B16. The experiment in a line: Pulmonary metastatic model, B16 melanoma. Format: in vivo. To be noted: C57BL/6 mice injected with B16. On the procedure: FIGS. 7A-7C illustrate that PET-16 impairs metastasis in a mouse model of melanoma. A well-recognized pulmonary metastatic model was utilized in which immunocompetent, wild-type C57BL/6 mice were injected with the highly metastatic mouse melanoma cell line B16, as indicated. […] FIG. 7A is a summary of the steps entailed in the model. FIG. 7B are photographs of biopsied lungs obtained from the infected mice. FIG. 7C provides a graphical representation of counts of metastatic colonies intermediate gray square represents 0 colonies, lightest gray square represents 1-10 colonies and darkest gray square represents >10 colonies) seen in lungs of vehicle-, PES-Cl- or PET-16-treated mice.
The inhibitory effect of PET-16 on metastasis was tested in vivo, a well-recognized pulmonary metastatic model was utilized in which immunocompetent, wild-type C57BL/6 mice were injected with the highly metastatic mouse melanoma cell line B16 (FIG. 7).

Another experiment has as its system ubiquitin. The experiment is described as follows: Western blot for ubiquitin in detergent fractions. Format: cell-based, human. To be noted: 451 Lu cells, 24 h, detergent insoluble fraction.
Text: as §1

For experiment [3], the system named is melanoma tumor cell line WM989. The experiment in a line: Combination with BRAF inhibitor Vemurafenib, viability. It is filed as cell-based, human. From the text: FIG. 6 is a line graph illustrating that PET-16 synergizes with the BRAF inhibitor Vemurafenib to reduce the viability of the melanoma tumor cell line WM989 (▪). WM989 cells treated singularly with Vemurafenib are depicted by (●). No synergy was detected between Vemurafenib and PES-Cl.

For `C(#C[P+](c1ccccc1)(c1ccccc1)c1ccccc1)c1ccccc1.[Br-]` [PET-16, triphenyl(phenylethynyl)phosphonium bromide], in the experiment with LC3, the “autophagy marker processed LC3II” value was “increase”. Also, in experiment [1], the IC50 was in the range of 0.5 to 1.5 µM. Besides, the “cathepsin L processing” value in the experiment with cathepsin L is “accumulation of the precursor procathepsin L and a markedly reduced abundance of the smaller, mature form”. Moreover, in the experiment with E. coli DH5α, the E. coli phenotype result was “cell filamentation and reduced viability”. Also, the “effect on growth of E. coli” value in the experiment on E. coli DH5α (6 h at 43° C.) is on record as “impaired bacterial growth”. Besides, in experiment [2], the lung metastases result is “significantly reduced”. For the same compound, the ubiquitinated polypeptides result with ubiquitin is “accumulation”. In addition, the “synergy with PLX4032 (Vemurafenib)” value in experiment [3] is given as “able to synergize”.
